Test results taken from ChEMBL document CHEMBL5113372, “Paradigm shift of "classical" HDAC inhibitors to "hybrid" HDAC inhibitors in therapeutic interventions” (Eur J Med Chem, 2021).
Each block holds one compound with its values, some of them ahead of it.

How the values were obtained:
Histone deacetylase 1 [1] = target: T1, Histone deacetylase 1 (Homo sapiens, UniProt Q13547); assay: Inhibition of His-tagged recombinant human HDAC1 (482 residues) expressed in baculovirus infected insect cells using FLUOR DE LYS-SIRT1 as substrate preincubated for 5 mins followed by substrate addition measured after 30 mins by fluorescence based assay
[2] = target: T2, Protein deacetylase HDAC6 (Homo sapiens, UniProt Q9UBN7); assay: Inhibition of His-tagged recombinant human HDAC6 expressed in baculovirus infected insect cells using Boc-Lys(Ac)-AMC as substrate preincubated for 5 mins followed by substrate addition measured after 30 mins by fluorescence based assay
T2 sequence (Q9UBN7 whole entry): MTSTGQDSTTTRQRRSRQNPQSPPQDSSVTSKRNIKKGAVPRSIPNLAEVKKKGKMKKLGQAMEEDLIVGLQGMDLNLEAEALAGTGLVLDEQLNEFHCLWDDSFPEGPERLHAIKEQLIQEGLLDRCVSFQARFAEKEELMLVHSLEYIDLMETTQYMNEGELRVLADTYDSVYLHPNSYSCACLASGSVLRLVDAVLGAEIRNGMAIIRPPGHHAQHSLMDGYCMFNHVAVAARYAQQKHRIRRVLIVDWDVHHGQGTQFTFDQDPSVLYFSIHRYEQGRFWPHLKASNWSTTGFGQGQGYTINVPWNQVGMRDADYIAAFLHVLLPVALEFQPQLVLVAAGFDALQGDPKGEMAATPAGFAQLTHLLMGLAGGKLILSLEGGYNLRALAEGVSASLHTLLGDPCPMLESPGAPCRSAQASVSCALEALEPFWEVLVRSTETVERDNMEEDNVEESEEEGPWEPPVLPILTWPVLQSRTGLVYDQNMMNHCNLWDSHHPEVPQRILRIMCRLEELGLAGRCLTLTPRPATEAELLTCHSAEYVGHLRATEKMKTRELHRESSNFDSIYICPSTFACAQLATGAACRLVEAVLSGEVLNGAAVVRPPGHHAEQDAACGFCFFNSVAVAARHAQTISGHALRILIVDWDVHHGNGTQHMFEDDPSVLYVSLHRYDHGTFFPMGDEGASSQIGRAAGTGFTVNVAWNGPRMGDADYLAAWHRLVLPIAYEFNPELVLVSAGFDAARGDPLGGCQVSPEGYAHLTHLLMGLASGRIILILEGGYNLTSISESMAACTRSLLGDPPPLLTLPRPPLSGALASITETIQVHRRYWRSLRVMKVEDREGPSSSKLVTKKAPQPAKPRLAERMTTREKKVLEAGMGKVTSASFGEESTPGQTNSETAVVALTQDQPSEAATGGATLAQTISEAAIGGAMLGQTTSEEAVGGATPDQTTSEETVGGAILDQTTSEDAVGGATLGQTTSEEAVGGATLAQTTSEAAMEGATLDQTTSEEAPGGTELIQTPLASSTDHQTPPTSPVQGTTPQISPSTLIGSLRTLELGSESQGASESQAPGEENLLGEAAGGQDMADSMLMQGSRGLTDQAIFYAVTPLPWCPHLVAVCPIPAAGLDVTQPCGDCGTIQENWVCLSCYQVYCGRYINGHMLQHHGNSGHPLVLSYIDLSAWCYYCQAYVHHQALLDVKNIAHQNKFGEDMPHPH

DU-145 [3] = assay: Inhibition of colony formation in human DU-145 cells incubated for 10 days by crystal violet method; type: functional, cell-based; settings: DU-145, 240 h
PC-3 = assay: Inhibition of colony formation in human PC-3 cells incubated for 10 days by crystal violet method; type: functional, cell-based; settings: PC-3, 240 h
Histone deacetylase 8 = target: T3, Histone deacetylase 8 (Homo sapiens, UniProt Q9BY41); assay: Inhibition of recombinant human HDAC8 using Fluor-de-lys substrate by fluorescence based microplate reader analysis
T3 sequence (Q9BY41 whole entry): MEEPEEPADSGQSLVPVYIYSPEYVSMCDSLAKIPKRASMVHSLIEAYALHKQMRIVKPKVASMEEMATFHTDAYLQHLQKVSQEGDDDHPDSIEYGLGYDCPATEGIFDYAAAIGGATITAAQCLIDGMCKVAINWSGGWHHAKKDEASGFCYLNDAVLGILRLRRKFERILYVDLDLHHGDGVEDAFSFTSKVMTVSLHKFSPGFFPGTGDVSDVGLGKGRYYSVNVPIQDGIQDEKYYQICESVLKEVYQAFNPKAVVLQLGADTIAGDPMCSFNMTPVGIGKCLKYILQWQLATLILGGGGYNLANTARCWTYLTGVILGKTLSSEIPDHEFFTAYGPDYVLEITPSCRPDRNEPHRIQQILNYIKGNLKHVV

[4] = target: 72 kDa type IV collagenase (Homo sapiens, UniProt P08253); assay: Inhibition of MMP2 (unknown origin) using chromogenic substrate incubated for 1 hr followed by substrate addition measured for 30 mins by microplate photometry
A549 [5] = assay: Antiinvasive activity against human A549 cells assessed as reduction in cell invasion incubated for 24 hrs by microplate reader analysis relative to control; type: functional; design: scale not given: the % may be the effect or the level left
Histone deacetylase 1 [6] = target: T1, Histone deacetylase 1; assay: Inhibition of HDAC1 (unknown origin)
[7] = target: T2, Protein deacetylase HDAC6; assay: Inhibition of HDAC6 (unknown origin)
[8] = target: Protein-glutamine gamma-glutamyltransferase (Homo sapiens, UniProt P21980); assay: Inhibition of recombinant human TG2 using N-Cbz-Glu(gamma-p-nitrophenylester) as substrate measured for 10 mins by absorbance based microplate reader analysis
Cortical neurone = assay: Neuroprotective activity against glutamate-induced mouse primary cortical neurons assessed as neuronal viability incubated for 24 hrs by MTT assay; type: functional, cell-based
[9] = target: Protein kinase C alpha type (Mus musculus, UniProt P20444); assay: Binding affinity to mouse PKC-alpha assessed as inhibition constant
Histone deacetylase 2 [10] = target: T4, Histone deacetylase 2 (Homo sapiens, UniProt Q92769); assay: Inhibition of HDAC2 (unknown origin)
[11] = system: Panel NCI-60 (60 carcinoma cell lines); assay: Cytotoxicity against human Panel NCI-60 (60 carcinoma cell lines) cells assessed as cell growth inhibition; type: functional, cell-based
Histone deacetylase 3 [12] = target: T5, Histone deacetylase 3 (Homo sapiens, UniProt O15379); assay: Inhibition of HDAC3 (unknown origin)
Histone deacetylase 4 = Histone deacetylase 4 (Homo sapiens, UniProt P56524); assay: Inhibition of HDAC4 (unknown origin)
Histone deacetylase 5 = Histone deacetylase 5 (Homo sapiens, UniProt Q9UQL6); assay: Inhibition of HDAC5 (unknown origin)
[13] = target: High affinity cGMP-specific 3',5'-cyclic phosphodiesterase 9A (Homo sapiens, UniProt O76083); assay: Inhibition of PDE9 (unknown origin)
[14] = Inhibition of PDE5 (unknown origin); design: species or system Homo sapiens
Histone deacetylase 1 [15] = target: T1, Histone deacetylase 1; assay: Inhibition of full-length recombinant human HDAC1 expressed in baculovirus infected Hi-5 insect cells using AcLys-Tyr-Lys(e-acetyl)-AMC as substrate incubated for 24 hrs by enzymatic assay
K562 = assay: Antiproliferative activity against human K562 cells assessed as cell growth inhibition incubated for 48 hrs by MTT assay; type: functional, cell-based; settings: K562, 48 h
HepG2 = assay: Antiproliferative activity against human HepG2 cells assessed as cell growth inhibition incubated for 48 hrs by MTT assay; type: functional, cell-based; settings: HepG2, 48 h
DU-145 [16] = assay: Antiproliferative activity against human DU-145 cells assessed as cell growth inhibition incubated for 48 hrs by MTT assay; type: functional, cell-based; settings: DU-145, 48 h
Histone deacetylase 1 [17] = target: T1, Histone deacetylase 1; assay: Inhibition of recombinant human HDAC1 expressed in baculovirus infected Hi-5 insect cells using Ac-Lys-Tyr-Lys (epsilon-acetyl)-AMC as substrate incubated for 3 to 24 hrs by fluorescence based plate reader analysis
Histone deacetylase 2 [18] = target: T4, Histone deacetylase 2; assay: Inhibition of recombinant human HDAC2 expressed in baculovirus infected Hi-5 insect cells using Ac-Lys-Tyr-Lys (epsilon-acetyl)-AMC as substrate incubated for 3 to 24 hrs by fluorescence based plate reader analysis
Histone deacetylase 3 [19] = target: T5, Histone deacetylase 3; assay: Inhibition of recombinant human HDAC3 expressed in baculovirus infected Hi-5 insect cells using Ac-Lys-Tyr-Lys (epsilon-acetyl)-AMC as substrate incubated for 3 to 24 hrs by fluorescence based plate reader analysis
HCT-116 = assay: Cytotoxicity against human HCT-116 cells assessed as inhibition of cell proliferation incubated for 72 hrs by MTT assay; type: functional, cell-based; settings: HCT-116, 72 h
A549 [20] = assay: Cytotoxicity against human A549 cells assessed as inhibition of cell proliferation incubated for 72 hrs by MTT assay; type: functional, cell-based; settings: A549, 72 h
Histone deacetylase = assay: Inhibition of pan-HDAC (unknown origin); type: protein assay, Homo sapiens
DU-145 [21] = assay: Anti-proliferative activity against human DU-145 cells assessed as cell growth inhibition measured after 72 hrs by SRB assay; type: functional, cell-based; settings: DU-145, 72 h

72 kDa type IV collagenase, sequence (P08253 whole entry): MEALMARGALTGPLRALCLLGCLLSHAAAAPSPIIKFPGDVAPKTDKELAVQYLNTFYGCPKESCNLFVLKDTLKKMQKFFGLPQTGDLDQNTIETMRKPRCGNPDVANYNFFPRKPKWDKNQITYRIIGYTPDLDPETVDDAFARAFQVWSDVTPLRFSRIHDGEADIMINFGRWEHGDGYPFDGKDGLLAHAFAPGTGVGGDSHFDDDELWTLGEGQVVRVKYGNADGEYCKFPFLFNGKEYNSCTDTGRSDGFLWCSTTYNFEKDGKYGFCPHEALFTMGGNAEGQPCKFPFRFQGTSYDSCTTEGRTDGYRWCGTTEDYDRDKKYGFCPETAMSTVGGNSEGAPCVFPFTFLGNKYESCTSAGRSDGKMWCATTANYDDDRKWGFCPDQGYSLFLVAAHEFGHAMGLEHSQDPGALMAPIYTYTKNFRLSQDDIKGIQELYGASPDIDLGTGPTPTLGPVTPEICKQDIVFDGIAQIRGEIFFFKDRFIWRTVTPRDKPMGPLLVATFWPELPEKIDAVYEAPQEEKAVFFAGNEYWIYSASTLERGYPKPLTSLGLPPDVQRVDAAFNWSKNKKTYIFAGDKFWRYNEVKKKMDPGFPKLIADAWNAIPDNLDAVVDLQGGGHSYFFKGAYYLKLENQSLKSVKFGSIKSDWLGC
T1 sequence (Q13547 whole entry): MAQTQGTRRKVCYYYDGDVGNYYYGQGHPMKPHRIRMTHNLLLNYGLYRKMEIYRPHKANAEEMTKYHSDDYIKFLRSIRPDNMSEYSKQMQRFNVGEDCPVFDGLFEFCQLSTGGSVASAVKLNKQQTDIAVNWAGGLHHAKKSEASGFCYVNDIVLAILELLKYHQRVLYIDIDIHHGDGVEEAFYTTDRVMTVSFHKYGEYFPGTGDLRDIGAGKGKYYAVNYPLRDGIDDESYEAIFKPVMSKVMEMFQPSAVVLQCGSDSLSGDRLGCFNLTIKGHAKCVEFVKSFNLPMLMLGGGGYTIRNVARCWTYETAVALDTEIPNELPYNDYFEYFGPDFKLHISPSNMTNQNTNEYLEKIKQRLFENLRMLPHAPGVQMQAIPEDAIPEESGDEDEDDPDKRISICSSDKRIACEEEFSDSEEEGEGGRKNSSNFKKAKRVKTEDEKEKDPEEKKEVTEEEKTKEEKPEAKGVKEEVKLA
T4 sequence (Q92769 whole entry): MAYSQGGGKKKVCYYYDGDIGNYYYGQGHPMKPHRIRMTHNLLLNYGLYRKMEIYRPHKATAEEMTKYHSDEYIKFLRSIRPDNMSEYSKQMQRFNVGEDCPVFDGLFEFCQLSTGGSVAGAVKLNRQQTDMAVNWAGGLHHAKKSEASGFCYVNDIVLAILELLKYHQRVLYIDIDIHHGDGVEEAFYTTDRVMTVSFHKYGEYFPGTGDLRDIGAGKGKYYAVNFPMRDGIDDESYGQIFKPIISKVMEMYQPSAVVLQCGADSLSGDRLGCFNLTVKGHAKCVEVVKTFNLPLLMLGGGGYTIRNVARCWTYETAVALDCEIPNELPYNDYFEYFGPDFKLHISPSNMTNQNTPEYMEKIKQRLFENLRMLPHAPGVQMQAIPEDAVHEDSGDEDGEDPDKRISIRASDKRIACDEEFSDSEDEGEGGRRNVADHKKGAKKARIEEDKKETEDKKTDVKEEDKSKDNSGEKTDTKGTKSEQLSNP
T5 sequence (O15379 whole entry): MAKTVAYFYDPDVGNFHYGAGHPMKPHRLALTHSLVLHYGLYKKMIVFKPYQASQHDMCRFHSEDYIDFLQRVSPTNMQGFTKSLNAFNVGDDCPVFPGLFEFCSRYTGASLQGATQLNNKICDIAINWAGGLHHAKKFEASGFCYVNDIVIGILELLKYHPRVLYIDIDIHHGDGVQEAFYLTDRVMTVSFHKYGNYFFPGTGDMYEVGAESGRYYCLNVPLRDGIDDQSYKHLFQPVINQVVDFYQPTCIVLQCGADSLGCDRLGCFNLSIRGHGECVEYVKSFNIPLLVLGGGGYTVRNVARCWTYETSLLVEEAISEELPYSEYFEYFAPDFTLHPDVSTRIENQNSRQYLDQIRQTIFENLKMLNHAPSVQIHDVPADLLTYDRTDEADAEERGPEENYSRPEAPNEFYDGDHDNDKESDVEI
Protein-glutamine gamma-glutamyltransferase, sequence (P21980 whole entry): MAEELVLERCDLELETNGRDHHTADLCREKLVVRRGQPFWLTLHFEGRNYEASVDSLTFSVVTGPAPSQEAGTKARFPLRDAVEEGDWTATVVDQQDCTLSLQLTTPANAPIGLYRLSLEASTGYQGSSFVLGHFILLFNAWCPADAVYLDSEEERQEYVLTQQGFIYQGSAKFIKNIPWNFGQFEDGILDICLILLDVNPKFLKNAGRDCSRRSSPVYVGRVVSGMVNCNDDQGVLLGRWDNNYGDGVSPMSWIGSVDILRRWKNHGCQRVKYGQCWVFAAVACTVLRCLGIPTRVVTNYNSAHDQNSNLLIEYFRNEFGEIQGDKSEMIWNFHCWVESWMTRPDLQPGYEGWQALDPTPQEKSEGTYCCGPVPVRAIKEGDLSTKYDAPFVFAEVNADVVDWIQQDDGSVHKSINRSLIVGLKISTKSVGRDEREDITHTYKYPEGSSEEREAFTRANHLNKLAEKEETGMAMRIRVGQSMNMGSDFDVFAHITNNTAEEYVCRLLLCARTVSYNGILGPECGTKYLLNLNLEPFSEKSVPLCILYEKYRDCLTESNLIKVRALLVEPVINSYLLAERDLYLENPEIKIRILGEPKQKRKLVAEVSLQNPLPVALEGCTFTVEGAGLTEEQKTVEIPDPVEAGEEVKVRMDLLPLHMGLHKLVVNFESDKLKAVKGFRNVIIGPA
Histone deacetylase 4, sequence (P56524 whole entry): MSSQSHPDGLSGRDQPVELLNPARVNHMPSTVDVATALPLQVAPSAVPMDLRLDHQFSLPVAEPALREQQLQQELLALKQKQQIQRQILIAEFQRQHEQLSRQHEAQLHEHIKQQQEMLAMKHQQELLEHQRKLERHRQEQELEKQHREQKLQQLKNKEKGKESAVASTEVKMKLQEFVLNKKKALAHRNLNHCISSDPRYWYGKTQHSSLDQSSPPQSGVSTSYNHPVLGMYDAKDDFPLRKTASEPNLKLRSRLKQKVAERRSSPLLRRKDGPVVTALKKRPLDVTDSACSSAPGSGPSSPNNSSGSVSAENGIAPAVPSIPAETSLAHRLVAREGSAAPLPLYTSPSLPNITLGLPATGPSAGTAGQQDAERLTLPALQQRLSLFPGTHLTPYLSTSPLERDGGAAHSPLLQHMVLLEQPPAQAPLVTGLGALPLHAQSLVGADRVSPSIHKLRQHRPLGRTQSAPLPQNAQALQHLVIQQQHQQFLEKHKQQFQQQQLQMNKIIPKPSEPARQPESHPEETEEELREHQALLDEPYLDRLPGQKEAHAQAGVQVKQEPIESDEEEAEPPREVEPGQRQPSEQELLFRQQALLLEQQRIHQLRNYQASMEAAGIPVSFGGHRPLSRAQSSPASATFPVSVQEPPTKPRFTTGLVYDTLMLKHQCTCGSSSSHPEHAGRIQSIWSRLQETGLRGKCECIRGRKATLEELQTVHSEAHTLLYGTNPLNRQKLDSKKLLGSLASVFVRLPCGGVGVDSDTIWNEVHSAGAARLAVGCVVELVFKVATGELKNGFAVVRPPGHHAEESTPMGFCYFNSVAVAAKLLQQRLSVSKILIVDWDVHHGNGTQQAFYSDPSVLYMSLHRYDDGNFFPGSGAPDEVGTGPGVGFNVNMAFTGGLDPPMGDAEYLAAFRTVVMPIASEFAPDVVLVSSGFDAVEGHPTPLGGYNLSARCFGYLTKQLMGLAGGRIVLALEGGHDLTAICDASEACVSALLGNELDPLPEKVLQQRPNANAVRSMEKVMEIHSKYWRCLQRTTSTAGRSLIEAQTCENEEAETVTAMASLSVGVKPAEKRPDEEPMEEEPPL
Histone deacetylase 5, sequence (Q9UQL6 whole entry): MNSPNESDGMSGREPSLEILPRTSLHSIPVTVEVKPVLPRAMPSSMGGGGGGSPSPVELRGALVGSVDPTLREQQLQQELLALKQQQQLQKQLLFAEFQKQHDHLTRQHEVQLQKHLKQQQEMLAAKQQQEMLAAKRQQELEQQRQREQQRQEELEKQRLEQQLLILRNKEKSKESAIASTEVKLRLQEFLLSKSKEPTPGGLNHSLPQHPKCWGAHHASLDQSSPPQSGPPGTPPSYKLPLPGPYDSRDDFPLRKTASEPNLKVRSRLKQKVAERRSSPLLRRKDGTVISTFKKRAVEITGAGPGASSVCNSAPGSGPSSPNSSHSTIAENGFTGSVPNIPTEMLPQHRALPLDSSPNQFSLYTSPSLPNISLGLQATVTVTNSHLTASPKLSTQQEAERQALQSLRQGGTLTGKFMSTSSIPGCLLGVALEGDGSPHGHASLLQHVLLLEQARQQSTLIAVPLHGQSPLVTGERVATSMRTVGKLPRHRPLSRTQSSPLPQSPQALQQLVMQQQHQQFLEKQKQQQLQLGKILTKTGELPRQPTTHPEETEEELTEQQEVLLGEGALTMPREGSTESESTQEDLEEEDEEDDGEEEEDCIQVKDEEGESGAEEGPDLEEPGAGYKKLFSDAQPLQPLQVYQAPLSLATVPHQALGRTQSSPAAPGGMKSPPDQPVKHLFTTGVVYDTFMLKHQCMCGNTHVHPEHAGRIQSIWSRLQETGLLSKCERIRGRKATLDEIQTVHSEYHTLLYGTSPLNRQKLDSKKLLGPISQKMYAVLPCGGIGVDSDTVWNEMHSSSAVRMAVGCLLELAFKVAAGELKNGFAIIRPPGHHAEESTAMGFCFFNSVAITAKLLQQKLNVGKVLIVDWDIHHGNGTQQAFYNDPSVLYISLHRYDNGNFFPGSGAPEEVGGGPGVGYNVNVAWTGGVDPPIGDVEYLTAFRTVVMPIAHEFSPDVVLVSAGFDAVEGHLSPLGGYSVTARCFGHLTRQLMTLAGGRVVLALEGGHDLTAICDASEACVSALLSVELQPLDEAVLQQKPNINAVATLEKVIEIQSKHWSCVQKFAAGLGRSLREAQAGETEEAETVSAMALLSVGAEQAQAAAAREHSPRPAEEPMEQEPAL

SMILES: CC(=O)SCCCCCCCOc1ccc2c(c1)N(C)[C@H](C(C)C)C(=O)N[C@@H](CO)C2
Ki [9]: 0.0045 µM

SMILES: Cn1c(CCCC(=O)O)nc2cc(N(CCCl)CCCl)ccc21 [BENDAMUSTINE]
IC50 (Histone deacetylase 1 [6]): 0.01 µM
IC50 (Histone deacetylase 2 [10]): 0.01 µM
IC50 [7]: 0.01 µM
IC50 [11]: 2.2 µM
IC50 (Histone deacetylase 3 [12]): 0.01 µM
IC50 (Histone deacetylase 4): 0.01 µM
IC50 (Histone deacetylase 5): 0.01 µM

SMILES: C[C@H]1CN(Cc2ccc(C(=O)NO)cc2)C[C@@H]1c1nc2c(cnn2C2CCCC2)c(=O)[nH]1
IC50 (Histone deacetylase 1 [6]): 0.593 µM
IC50 (Histone deacetylase 2 [10]): 3.53 µM
IC50 [7]: 0.04 µM
IC50 [13]: 0.107 µM
IC50 [14]: > 10 µM

SMILES: CCN1CCN(c2cc(Nc3ncc(C(=O)Nc4ccccc4N)s3)ncn2)CC1
IC50 (Histone deacetylase 1 [15]): 0.15 µM
IC50 (K562): 2.56 µM
IC50 (HepG2): 16.5 µM
IC50 (DU-145 [16]): 5.79 µM

SMILES: CC[C@@]1(O)C(=O)OCc2c1cc1n(c2=O)Cc2cc3ccccc3nc2-1 [CAMPTOTHECIN]
IC50 (Histone deacetylase): 0.05 µM
IC50 (DU-145 [21]): 0.07 µM

Now from value to compound, other results behind:

IC50 (Histone deacetylase 1 [1]): 0.0166 µM
IC50 [2]: 0.0022 µM
IC50 (DU-145 [3]): 0.16 µM
IC50 (PC-3): 0.31 µM
SMILES: O=C(CCCCCNC(=O)c1cccc2cc3ccccc3nc12)NO

IC50 (Histone deacetylase 8): 2.89 µM
IC50 [4]: 6.4 µM
SMILES: COc1ccc(CNC(=O)[C@H](CCC(=O)O)NC(=O)Cc2ccc(Br)cc2)cc1
Activity (A549 [5]): 34%

IC50 (Histone deacetylase 1 [6]): 3.38 µM
IC50 [7]: 4.1 µM
IC50 [8]: 13.3 µM
SMILES: O=C(CCCCNC(=S)Nc1ccc(/C=C/C(=O)c2cccnc2)cc1)NO
EC50 (Cortical neurone): 3.7 µM

IC50 (Histone deacetylase 8): 3.03 µM
IC50 [4]: 19.6 µM
SMILES: O=C(O)CC[C@H](NC(=O)Cc1ccc(Br)cc1)C(=O)NCc1ccccc1
Activity (A549 [5]): 34%

IC50 (Histone deacetylase 1 [17]): 11 µM
IC50 (Histone deacetylase 2 [18]): 0.75 µM
IC50 (Histone deacetylase 3 [19]): 5.3 µM
SMILES: COc1cc([C@@H]2c3cc4c(cc3C[C@H]3COC(=O)[C@@H]32)OCO4)cc(OC)c1OC(=O)CC(=O)Nc1ccc(C(=O)Nc2ccccc2N)cc1
IC50 (HCT-116): 0.04 µM
IC50 (A549 [20]): 0.037 µM

IC50 (Histone deacetylase 8): 3.8 µM
IC50 [4]: 83.7 µM
SMILES: COc1ccc(CC(=O)N[C@@H](CCC(=O)O)C(=O)NCc2ccccc2)cc1
